Test results: the NIST ThermoML archive (doi:10.1016/j.tca.2013.09.006)

Key:
[1] = mn = molality of the nth substance listed, in mol/kg; conditions: 101 kPa, Liquid; for mass density: Vibrating tube method; for speed of sound: vibrating tube:WF =
[2] = 101 kPa, Liquid; for mass density: Vibrating tube method; for speed of sound: vibrating tube

CC1(C)SC2C(NC(=O)C(N)c3ccccc3)C(=O)N2C1C(=O)O (centres undefined) + O
[1]
Conditions	mass density, 305.15 K [kg/m3]	mass density, 310.15 K [kg/m3]	mass density, 315.15 K [kg/m3]	speed of sound, 305.15 K [m/s]	speed of sound, 310.15 K [m/s]	speed of sound, 315.15 K [m/s]
m1 = 0.0005	995.062	993.352	991.353	1513.7	1523.7	1532.2
m1 = 0.002	995.271	993.569	991.665	1514.8	1524.8	1533
m1 = 0.004	995.458	993.755	991.87	1516	1526	1534

C[C@H](N)C(=O)N[C@@H](C)C(=O)O [L-alanyl-L-alanine] + O
[1]
Conditions	mass density, 305.15 K [kg/m3]	mass density, 310.15 K [kg/m3]	mass density, 315.15 K [kg/m3]	speed of sound, 305.15 K [m/s]	speed of sound, 310.15 K [m/s]	speed of sound, 315.15 K [m/s]
m1 = 0.00215	995.223	993.535	991.641	1514.2	1524.5	1532.9
m1 = 0.00421	995.35	993.662	991.767	1514.4	1524.8	1533
m1 = 0.00596	995.458	993.769	991.873	1514.5	1524.9	1533.1
m1 = 0.00831	995.604	993.913	992.016	1514.7	1525.1	1533.2
m1 = 0.00955	995.68	993.989	992.092	1514.9	1525.3	1533.4
m1 = 0.01169	995.812	994.12	992.222	1515	1525.5	1533.6
m1 = 0.01422	995.968	994.275	992.376	1515.2	1525.6	1533.7
m1 = 0.01594	996.074	994.38	992.48	1515.3	1525.8	1533.9
m1 = 0.01778	996.187	994.493	992.592	1515.5	1526	1534.1
m1 = 0.01983	996.314	994.618	992.716	1515.7	1526.2	1534.2

CC(C)C[C@H](NC(=O)[C@H](C)N)C(=O)O [L-alanyl-L-leucine] + O
[1]
Conditions	mass density, 305.15 K [kg/m3]	mass density, 310.15 K [kg/m3]	mass density, 315.15 K [kg/m3]	speed of sound, 305.15 K [m/s]	speed of sound, 310.15 K [m/s]	speed of sound, 315.15 K [m/s]
m1 = 0.00185	995.164	993.476	991.582	1514.3	1524.7	1533.2
m1 = 0.00389	995.246	993.556	991.661	1514.4	1525	1533.4
m1 = 0.00579	995.323	993.631	991.734	1514.6	1525.2	1533.7
m1 = 0.00813	995.416	993.723	991.825	1514.7	1525.4	1533.9
m1 = 0.00966	995.478	993.783	991.884	1514.9	1525.7	1534
m1 = 0.0122	995.579	993.883	991.982	1515	1525.9	1534.3
m1 = 0.01422	995.66	993.962	992.06	1515.1	1526	1534.5
m1 = 0.01589	995.727	994.027	992.124	1515.3	1526.3	1534.7
m1 = 0.01753	995.792	994.092	992.188	1515.5	1526.6	1534.9
m1 = 0.02055	995.913	994.21	992.304	1515.6	1526.7	1535

CC(C)[C@H](NC(=O)[C@H](C)N)C(=O)O [L-alanyl-L-valine] + O
[1]
Conditions	mass density, 305.15 K [kg/m3]	mass density, 310.15 K [kg/m3]	mass density, 315.15 K [kg/m3]	speed of sound, 305.15 K [m/s]	speed of sound, 310.15 K [m/s]	speed of sound, 315.15 K [m/s]
m1 = 0.00201	995.187	993.499	991.606	1514.3	1524.8	1533.5
m1 = 0.00414	995.289	993.601	991.707	1514.5	1525	1533.7
m1 = 0.00605	995.381	993.692	991.798	1514.6	1525.2	1534
m1 = 0.00791	995.471	993.781	991.886	1514.8	1525.5	1534.1
m1 = 0.01019	995.58	993.89	991.994	1515	1525.7	1534.3
m1 = 0.01179	995.657	993.966	992.07	1515.2	1525.9	1534.4
m1 = 0.01396	995.761	994.07	992.173	1515.4	1526.1	1534.6
m1 = 0.01551	995.835	994.143	992.246	1515.6	1526.4	1534.8
m1 = 0.01805	995.957	994.264	992.366	1515.8	1526.7	1535
m1 = 0.01971	996.037	994.343	992.445	1515.9	1526.9	1535.2

O [water]
[2]
Conditions	mass density [kg/m3]	speed of sound [m/s]
305.15 K	995.09	1513.5
310.15 K	993.403	1523.5
315.15 K	991.51	1532.2
